{"source": "paper PMC7756582", "about": "“Prodrugs of γ‐Alkyl‐Modified Nucleoside Triphosphates: Improved Inhibition of HIV Reverse Transcriptase” (Angewandte Chemie (International Ed. in English), 2020)", "molecular_target": "T1, human DNA polymerase γ (Homo sapiens, UniProt P54098)", "T1 construct": "purchased Roboklon", "T1 sequence (P54098 1-1239)": "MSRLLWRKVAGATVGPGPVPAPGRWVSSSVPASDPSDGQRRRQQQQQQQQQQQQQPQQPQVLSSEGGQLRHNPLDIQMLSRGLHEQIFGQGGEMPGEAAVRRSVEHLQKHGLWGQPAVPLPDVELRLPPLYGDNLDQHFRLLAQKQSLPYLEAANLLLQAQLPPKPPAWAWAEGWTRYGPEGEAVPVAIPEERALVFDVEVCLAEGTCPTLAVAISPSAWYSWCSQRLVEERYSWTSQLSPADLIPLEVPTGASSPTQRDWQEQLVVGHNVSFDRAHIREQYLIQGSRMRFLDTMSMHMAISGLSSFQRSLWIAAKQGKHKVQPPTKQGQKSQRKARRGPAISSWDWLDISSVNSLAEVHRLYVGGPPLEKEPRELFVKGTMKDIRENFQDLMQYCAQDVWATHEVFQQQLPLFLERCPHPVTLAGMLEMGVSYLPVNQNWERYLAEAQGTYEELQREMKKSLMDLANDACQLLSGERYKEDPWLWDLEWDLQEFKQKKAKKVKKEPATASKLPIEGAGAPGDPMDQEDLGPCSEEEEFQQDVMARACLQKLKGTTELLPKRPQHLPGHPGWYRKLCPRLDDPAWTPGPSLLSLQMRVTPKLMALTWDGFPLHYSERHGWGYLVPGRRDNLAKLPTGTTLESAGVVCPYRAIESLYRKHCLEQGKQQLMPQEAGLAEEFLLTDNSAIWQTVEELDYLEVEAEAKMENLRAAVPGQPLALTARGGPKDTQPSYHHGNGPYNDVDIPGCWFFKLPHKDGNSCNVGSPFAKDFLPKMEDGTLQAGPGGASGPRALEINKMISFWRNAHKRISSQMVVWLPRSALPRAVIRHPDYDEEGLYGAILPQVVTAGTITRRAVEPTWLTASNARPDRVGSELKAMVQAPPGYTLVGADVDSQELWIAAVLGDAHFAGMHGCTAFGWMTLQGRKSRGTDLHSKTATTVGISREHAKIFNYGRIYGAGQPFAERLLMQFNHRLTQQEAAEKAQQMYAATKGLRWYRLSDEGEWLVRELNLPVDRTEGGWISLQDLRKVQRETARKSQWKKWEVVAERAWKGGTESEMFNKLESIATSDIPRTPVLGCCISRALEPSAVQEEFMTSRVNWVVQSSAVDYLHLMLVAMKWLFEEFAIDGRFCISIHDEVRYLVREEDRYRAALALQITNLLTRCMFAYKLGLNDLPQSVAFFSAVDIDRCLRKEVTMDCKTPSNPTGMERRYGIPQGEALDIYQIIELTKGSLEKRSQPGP", "assay": "Primer extension assay with human DNA polymerase γ", "assay_type": "biochemical", "conditions": "dNTPs 250 μM, Pol γ 4 U", "description": "Two different set‐ups have been used. First, a mixture of dATP, dCTP, dGTP, and γ‐alkyl‐TTP (N*) or ‐d4TTP (T*) was used as a mixture. The results obtained from these experiments were compared to those in which just γ‐alkyl‐TTP (N) or d4TTP (T) was used. In each experiment a primer extension without added polymerase (negative control, ‐ lane) and an experiment in which all four canonical NTPs were added (positive control, +lane) were used as controls.\nAnti-HIV activity assay: Inhibition of HIV-1(IIIB)- and HIV-2(ROD)-induced cytopathicity in wild-type CEM/0 and thymidine kinase-deficient CEM/TK- cell cultures was measured in microtiter 96-well plates containing ~3·105 CEM cells/mL infected with 100 CCID50 of HIV per milliliter and containing appropriate dilutions of the test compounds. After 4−5 days of incubation at 37 °C in a CO2-controlled humidified atmosphere, CEM giant (syncytium) cell formation was examined microscopically. The EC50 (50% effective concentration) was defined as the compound concentration required to inhibit HIV-induced giant cell formation by 50%. […]\n2) For HIV- RT assay: The final assay solution (10 µL) consists of 50 mM Tris-HCl (pH 8.6 at 22 °C), 10 mM MgCl2, 40mM KCl, dNTPs 66 µM, HIV RT 6 U, Hybrid 0.32 µM in a reaction volume of 10 µL, incubated 37 °C for 15 min, 80 °C for 3 min; 50 mA, 45w for 4 h. […] The result was visualized by fluorescence imaging. […]", "data": [{"smiles": "Cc1cn(C2C=CC(COP(=O)(O)OP(=O)(O)OP(=O)(O)O)O2)c(=O)[nH]c1=O", "note": "(stereo not shown) [2 t, d4TTP, reference compound]", "values": [{"measurement": "primer extension by DNA polymerase γ (substrate properties)", "result": "not substrates"}]}]}
